This assay has as its system diaphorase. As to the kind of experiment: fluorescently labeled diaphorase binding to peptide array with or without excess FAD. The following applies: for 1 microM FAD (array fluorescence of bound diaphorase) / 1 micro no FAD (array fluorescence of bound diaphorase): 1 micromolar labeled diaphorase; for 1 microM FAD (array fluorescence of bound diaphorase) / 10 microM FAD (array fluorescence of bound diaphorase): excess FAD present; for 1 microM FAD (array fluorescence of bound diaphorase) / 1 micro no FAD (array fluorescence of bound diaphorase) / 10 microM FAD (array fluorescence of bound diaphorase) / 10 microM no FAD (array fluorescence of bound diaphorase): 65535 is detector saturation; for 10 microM FAD (array fluorescence of bound diaphorase) / 10 microM no FAD (array fluorescence of bound diaphorase): 10 micromolar labeled diaphorase; for 1 microM noFAD/FAD / 10 microM noFAD/FAD: ratio of binding without FAD to binding with FAD; for 1 microM noFAD/FAD / Meas. ratio: 1 micromolar diaphorase; for 10 microM noFAD/FAD: 10 micromolar diaphorase; for Meas. ratio: ratio without/with FAD calculated from measured binding values. How it is done: Measurements were performed in which diaphorase was bound to an array of about 126,000 unique sequences. The sequences were chosen simply to cover sequence space. 16 of the natural 20 amino acids were used to make up these sequences with C, I, M and T omitted. The diaphorase was fluorescently labeled and each peptide sequence feature was scanned and fluorescence recorded on the array. Diaphorase bound tightly to some peptides and not at all to others. Two different concentrations of diaphorase were used, 1 and 10 micromolar, and the diaphorase was either bound in the presence of excess FAD or not. […] Indeed the Pearson correlation coefficient between w/ and w/o FAD was >0.97, which actually speaks to the reproducibility of this dataset. However, there are some differences as shown on the scatter plot of FIG. 1. When one takes a ratio of the binding without FAD and the binding with FAD, one finds the following top 30 ratios (Table 1): Note that all these sequences end with a GSG linker sequence. Because there are two concentrations, one can easily check for consistency. Note that 65535 is detector saturation, so one has to ignore those values. For this reason, the lower concentration is used most of the time. […] It appears that this was some kind of error and was ignored in subsequent analysis. A similar conclusion can be made with the 7th highest value. Looking at the sequences, RW or at least R or K followed by a nonpolar or aromatic amino acid at the N-terminus. This is interesting as FAD is negatively charged, though the adenine in FAD looks a bit like tryptophan (see FIG. 2).

For “YNRNAKSSGGSG [array peptide with C-terminal GSG linker]”, the “1 microM FAD (array fluorescence of bound diaphorase)” value is given as 1546, the “1 micro no FAD (array fluorescence of bound diaphorase)” value came out at 4014, the “10 microM FAD (array fluorescence of bound diaphorase)” value is reported as 18565.25 and the “10 microM no FAD (array fluorescence of bound diaphorase)” value was 41333.25. The “1 microM noFAD/FAD” value worked out at 2.596, the “10 microM noFAD/FAD” value is 2.226 and the Meas. ratio is 2.60.

For LFDNVLEFVEDGS, the Meas. ratio is reported as 0.69.

GYHLFEKLYFDGS: the Meas. ratio is reported as 0.70.

On to “RWSFPAKGGSG [array peptide with C-terminal GSG linker]”, for which the “1 microM FAD (array fluorescence of bound diaphorase)” value amounted to 3614, the “1 micro no FAD (array fluorescence of bound diaphorase)” value is reported as 10002.75, the “10 microM FAD (array fluorescence of bound diaphorase)” value was 51221.25 and the “10 microM no FAD (array fluorescence of bound diaphorase)” value is given as 65535. Also, the “1 microM noFAD/FAD” value is 2.768, the “10 microM noFAD/FAD” value was 1.279 and the Meas. ratio is 2.77.

On to ALDKLSGLWKHVG, for which the Meas. ratio is recorded as 0.69.

As to KEDKVFGFRFDGS, the Meas. ratio is given as 0.70.

As for “RNWYGGSG [array peptide with C-terminal GSG linker]”, the “1 microM FAD (array fluorescence of bound diaphorase)” value was 2940.75, the “1 micro no FAD (array fluorescence of bound diaphorase)” value is reported as 7830.5, the “10 microM FAD (array fluorescence of bound diaphorase)” value is listed as 48587 and the “10 microM no FAD (array fluorescence of bound diaphorase)” value stood at 65535. Further, the “1 microM noFAD/FAD” value turned out to be 2.663, the “10 microM noFAD/FAD” value came to 1.349 and the Meas. ratio is reported as 2.66.

In the case of “VVQALFDGSG [array peptide with C-terminal GSG linker]”, the “1 microM FAD (array fluorescence of bound diaphorase)” value stood at 2304.25, the “1 micro no FAD (array fluorescence of bound diaphorase)” value was found to be 1467.5, the “10 microM FAD (array fluorescence of bound diaphorase)” value amounted to 21180.25 and the “10 microM no FAD (array fluorescence of bound diaphorase)” value came to 9478.25. Moreover, the “1 microM noFAD/FAD” value worked out at 0.6369, the “10 microM noFAD/FAD” value turned out to be 0.4475 and the Meas. ratio was 0.64.

On to “YRRPWKFRDGSG [array peptide with C-terminal GSG linker]”, for which the Meas. ratio was 1.74.

“NVSDLSQFYLSGSG [array peptide with C-terminal GSG linker]”: the “1 microM FAD (array fluorescence of bound diaphorase)” value turned out to be 3436.25, the “1 micro no FAD (array fluorescence of bound diaphorase)” value was found to be 2144.5, the “10 microM FAD (array fluorescence of bound diaphorase)” value is 27800.25 and the “10 microM no FAD (array fluorescence of bound diaphorase)” value is reported as 6739. Moreover, the “1 microM noFAD/FAD” value worked out at 0.6241, the “10 microM noFAD/FAD” value was determined as 0.2424 and the Meas. ratio is given as 0.62.

For “YRFPNAQSPGGSG [array peptide with C-terminal GSG linker]”, the “1 microM FAD (array fluorescence of bound diaphorase)” value amounted to 2373, the “1 micro no FAD (array fluorescence of bound diaphorase)” value was found to be 6240, the “10 microM FAD (array fluorescence of bound diaphorase)” value came to 37721.5 and the “10 microM no FAD (array fluorescence of bound diaphorase)” value amounted to 65535. In addition, the “1 microM noFAD/FAD” value stood at 2.63, the “10 microM noFAD/FAD” value worked out at 1.737 and the Meas. ratio is 2.63.

In the case of DANLFGYFKDGGS, the Meas. ratio is recorded as 0.70.

Consider DYFEGQLNHLGGS, for which the Meas. ratio is given as 0.75.

For the sequence “QLLQLLFGGSG [array peptide with C-terminal GSG linker]”, the “1 microM FAD (array fluorescence of bound diaphorase)” value came out at 6311.5, the “1 micro no FAD (array fluorescence of bound diaphorase)” value turned out to be 3228.25, the “10 microM FAD (array fluorescence of bound diaphorase)” value was 53382.25 and the “10 microM no FAD (array fluorescence of bound diaphorase)” value is 19529.5. Moreover, the “1 microM noFAD/FAD” value stood at 0.5115, the “10 microM noFAD/FAD” value came to 0.3658 and the Meas. ratio is given as 0.51.

Take “WRGFKFADGGSG [array peptide with C-terminal GSG linker]”: the “1 microM FAD (array fluorescence of bound diaphorase)” value is recorded as 2156.5, the “1 micro no FAD (array fluorescence of bound diaphorase)” value came out at 5654.5, the “10 microM FAD (array fluorescence of bound diaphorase)” value is 31464.5 and the “10 microM no FAD (array fluorescence of bound diaphorase)” value worked out at 58885. Moreover, the “1 microM noFAD/FAD” value was 2.622, the “10 microM noFAD/FAD” value is listed as 1.871 and the Meas. ratio is 2.62.

Consider “WRPFWKNLGGSG [array peptide with C-terminal GSG linker]”, for which the Meas. ratio is given as 2.18.

Take “EGYANKLLALFSGSG [array peptide with C-terminal GSG linker]”: the “1 microM FAD (array fluorescence of bound diaphorase)” value was found to be 1727, the “1 micro no FAD (array fluorescence of bound diaphorase)” value worked out at 1034, the “10 microM FAD (array fluorescence of bound diaphorase)” value worked out at 10408.25 and the “10 microM no FAD (array fluorescence of bound diaphorase)” value came out at 6648. Moreover, the “1 microM noFAD/FAD” value turned out to be 0.5987, the “10 microM noFAD/FAD” value was determined as 0.6387 and the Meas. ratio is 0.60.

As to “EAVQKLLFSGSG [array peptide with C-terminal GSG linker]”, the “1 microM FAD (array fluorescence of bound diaphorase)” value is 2420, the “1 micro no FAD (array fluorescence of bound diaphorase)” value is 1457.5, the “10 microM FAD (array fluorescence of bound diaphorase)” value was determined as 17702.75 and the “10 microM no FAD (array fluorescence of bound diaphorase)” value is 5389.5. Moreover, the “1 microM noFAD/FAD” value amounted to 0.6023, the “10 microM noFAD/FAD” value is reported as 0.3044 and the Meas. ratio is reported as 0.60.

As to “RQYQKHSYAKFSGSG [array peptide with C-terminal GSG linker]”, the “1 microM FAD (array fluorescence of bound diaphorase)” value is recorded as 2460, the “1 micro no FAD (array fluorescence of bound diaphorase)” value came out at 6757, the “10 microM FAD (array fluorescence of bound diaphorase)” value is 27275.5 and the “10 microM no FAD (array fluorescence of bound diaphorase)” value is 57203.5. Besides, the “1 microM noFAD/FAD” value worked out at 2.747, the “10 microM noFAD/FAD” value is 2.097 and the Meas. ratio was 2.75.

As for “AQVAVDGFYVDGSG [array peptide with C-terminal GSG linker]”, the “1 microM FAD (array fluorescence of bound diaphorase)” value came out at 3089, the “1 micro no FAD (array fluorescence of bound diaphorase)” value amounted to 2012.5, the “10 microM FAD (array fluorescence of bound diaphorase)” value was 22739.5 and the “10 microM no FAD (array fluorescence of bound diaphorase)” value is recorded as 12627. Besides, the “1 microM noFAD/FAD” value amounted to 0.6515, the “10 microM noFAD/FAD” value is given as 0.5553 and the Meas. ratio is on record as 0.65.

For “VLAYKLQVDGSG [array peptide with C-terminal GSG linker]”, the Meas. ratio is listed as 0.68.

On to YWRFYANWAQLFG, for which the Meas. ratio is recorded as 2.56.

For “YSVDYWYQVDGSG [array peptide with C-terminal GSG linker]”, the “1 microM FAD (array fluorescence of bound diaphorase)” value came to 10415, the “1 micro no FAD (array fluorescence of bound diaphorase)” value stood at 1802.5, the “10 microM FAD (array fluorescence of bound diaphorase)” value is 19218.25 and the “10 microM no FAD (array fluorescence of bound diaphorase)” value came out at 19784.75. For the same sequence, the “1 microM noFAD/FAD” value is 0.1731, the “10 microM noFAD/FAD” value is on record as 1.029 and the Meas. ratio is 0.17.

Take RVLPYHGWKWFSG: the Meas. ratio is 2.45.

Consider AWVELEYQYVFEG, for which the Meas. ratio is 0.74.

For the sequence “WRLNPLQFGGSG [array peptide with C-terminal GSG linker]”, the Meas. ratio is 2.54.

The record behind these values is patent publication US20190064177A1, “INCORPORATING COMPETITIVE BINDING INFORMATION INTO MOLECULAR ARRAY ANALYSIS TO GENERATE FUNCTION NETWORKS OF INTERACTIONS” (ARIZONA BOARD OF REGENTS ON BEHALF OF ARIZONA STATE …, priority 2017, published 2019).
